Test results from DBAASP.
≈ marks a conversion by molar mass, not a printed value. Where “and” joins values, the source holds several entries; their conditions need not be identical. Equal values may be shown once. One block for each compound: values may come before it.

Columns and labels:
Test in all cases: ≥ marks a high value that may be exact or a test limit, other limits are often not marked, values filed in µg/mL are converted to µM
[1] = test system: Pseudomonas aeruginosa ATCC 9027
[2] = test system: Pseudomonas aeruginosa 73
Escherichia coli 804 = test system: Escherichia coli 804
[3] = test system: Pseudomonas aeruginosa 50
[4] = test system: Acinetobacter baumannii 97830
[5] = test system: Klebsiella pneumoniae ATCC 700603
[6] = test system: Escherichia coli ATCC 25922
[7] = test system: Acinetobacter baumannii 9931
[8] = test system: Staphylococcus epidermidis ATCC 12228
[9] = test system: Staphylococcus aureus ATCC 29213
[10] = test system: Pseudomonas aeruginosa ATCC 27853
[11] = test system: Bacillus subtilis ATCC 23857
Escherichia coli 780 = test system: Escherichia coli 780
[12] = test system: Acinetobacter baumannii ATCC 19606
Staphylococcus aureus 75 = test system: Staphylococcus aureus 75
[13] = test system: Staphylococcus aureus ATCC 25923
[14] = test system: Staphylococcus aureus 113
[15] = test system: Candida albicans ATCC 64549
[16] = test system: Escherichia coli KCTC 2433
[17] = test system: Micrococcus luteus ATCC 4698
Bacillus cereus = test system: Bacillus cereus
[18] = test system: Bacillus subtilis ATCC 6633
Lactococcus lactis = test system: Lactococcus lactis
[19] = test system: Candida albicans ATCC 36232
[20] = test system: Klebsiella pneumoniae ATCC 10031
[21] = test system: Proteus mirabilis ATCC 25933
Staphylococcus aureus = test system: Staphylococcus aureus
Escherichia coli = test system: Escherichia coli
[22] = test system: Shigella dysenteriae ATCC 9752
[23] = test system: Staphylococcus aureus KCTC 3881
[24] = test system: Escherichia coli NCTC 8007
Acinetobacter sp. = test system: Acinetobacter sp.
[25] = test system: Escherichia coli NCTC 10418
[26] = test system: Staphylococcus aureus NCTC 10571
Klebsiella aerogenes = test system: Klebsiella aerogenes
Proteus mirabilis = test system: Proteus mirabilis
Klebsiella sp. = test system: Klebsiella sp.
Providencia stuartii = test system: Providencia stuartii
[27] = test system: Pseudomonas aeruginosa Z61
[28] = test system: Pseudomonas aeruginosa PAO1
[29] = test system: Staphylococcus aureus R147
[30] = test system: Salmonella enterica serovar Typhimurium MS4252S
[31] = test system: Enterococcus faecalis ATCC 29212
Candida albicans 3153A = test system: Candida albicans 3153A
Escherichia coli UB1005 = test system: Escherichia coli UB1005
[32] = test system: Salmonella enterica subsp. enterica serovar Typhimurium ATCC 14028s
Escherichia coli O157:H7 = test system: Escherichia coli O157:H7
Candida albicans 105 = test system: Candida albicans 105
Escherichia coli O111 = test system: Escherichia coli O111
Escherichia coli DC2 = test system: Escherichia coli DC2
[33] = test system: Staphylococcus epidermidis
[34] = test system: Staphylococcus aureus NCTC 4163
[35] = test system: Staphylococcus aureus 1056

SMILES: C[C@H](N)C(=O)N[C@@H](CCCN=C(N)N)C(=O)N[C@@H](Cc1c[nH]c2ccccc12)C(=O)N[C@@H](Cc1c[nH]c2ccccc12)C(=O)N[C@@H](Cc1c[nH]c2ccccc12)C(=O)N[C@@H](CCCN=C(N)N)C(=O)N[C@@H](C)C(N)=O [ARWWWRA]
- MIC [1]: > 128 µM
- MIC [2]: ≥ 128 µM
- MIC (Escherichia coli 804): ≥ 128 µM
- MIC [3]: ≥ 128 µM
- MIC [4]: ≥ 128 µM
- MIC [5]: > 128 µM
- MIC [6]: > 128 µM
- MIC [7]: ≥ 128 µM
- MIC [8]: 32 µM (≈ 33 µg/mL)
- MIC [9]: 128 µM (≈ 132 µg/mL)
- MIC [10]: > 128 µM
- MIC [11]: 16 µM (≈ 16.5 µg/mL)
- MIC (Escherichia coli 780): ≥ 128 µM
- MIC [12]: > 128 µM
- MIC (Staphylococcus aureus 75): ≥ 64 µM
- MIC [13]: 64 µM and 128 µM
- MIC [14]: ≥ 64 µM

SMILES: CSCC[C@H](NC(=O)[C@H](CC(N)=O)NC(=O)[C@H](CCCN=C(N)N)NC(=O)[C@H](CCC(N)=O)NC(=O)[C@H](Cc1c[nH]c2ccccc12)NC(=O)[C@H](CCC(N)=O)NC(=O)[C@H](Cc1ccccc1)NC(=O)[C@@H](N)CS)C(=O)N[C@@H](CCCN=C(N)N)C(=O)N[C@@H](CCCCN)C(=O)N[C@H](C(=O)N[C@@H](CCCN=C(N)N)C(=O)O)C(C)C [CFQWQRNMRKVR]
- MIC [15]: 7.57 µM (≈ 12.5 µg/mL)

SMILES: CC[C@H](C)[C@H](NC(=O)[C@H](CC(C)C)NC(=O)[C@@H](N)Cc1ccccc1)C(=O)NCC(=O)N[C@@H](CCSC)C(=O)N[C@H](C(=O)N[C@@H](CCC(N)=O)C(=O)NCC(=O)N[C@@H](CC(C)C)C(=O)N[C@H](C(=O)N[C@H]1CSSC[C@@H](C(=O)O)NC(=O)[C@H](CCCCN)NC(=O)[C@H](CCCN=C(N)N)NC(=O)[C@H]([C@@H](C)O)NC(=O)[C@H]([C@@H](C)CC)NC(=O)[C@H](CC(C)C)NC1=O)[C@@H](C)CC)[C@@H](C)O [FLIGMTQGLICLITRKC]
- MIC [16]: 31.4 µM (≈ 59.9 µg/mL)
- MIC [1]: > 52.3 µM
- MIC [17]: 3.27 µM (≈ 6.24 µg/mL)
- MIC (Bacillus cereus): 25.6 µM (≈ 48.9 µg/mL)
- MIC [18]: 13.1 µM (≈ 25 µg/mL)
- MIC (Lactococcus lactis): 25.6 µM (≈ 48.9 µg/mL)
- MIC [19]: ≥ 52.3 µM
- MIC [20]: 31.4 µM (≈ 59.9 µg/mL)
- MIC [8]: 13.1 µM (≈ 25 µg/mL)
- MIC [21]: ≥ 52.3 µM
- MIC (Staphylococcus aureus): 12.8 µM (≈ 24.4 µg/mL)
- MIC (Escherichia coli): 25.6 µM (≈ 48.9 µg/mL)
- MIC [22]: 26.2 µM (≈ 49.9 µg/mL)
- MIC [23]: 7.85 µM (≈ 15 µg/mL)

Further lines, results first:

- MIC [24]: ≥ 1000 µM
- MIC (Acinetobacter sp.): 10 µM (≈ 15.1 µg/mL)
- MIC [25]: ≥ 750 µM
- MIC [26]: ≥ 250 µM
- MIC (Klebsiella aerogenes): ≥ 1000 µM
- MIC (Proteus mirabilis): ≥ 1000 µM
- MIC (Klebsiella sp.): ≥ 1000 µM
- MIC (Providencia stuartii): ≥ 1000 µM
SMILES: CC(C)[C@H](NC(=O)[C@H](CCCCN)NC(=O)[C@H](CCCN=C(N)N)NC(=O)[C@@H]1CCCN1C(=O)[C@H](CC(N)=O)NC(=O)[C@H](CCCN=C(N)N)NC(=O)[C@H](CCC(N)=O)NC(=O)[C@H](Cc1c[nH]c2ccccc12)NC(=O)[C@H](CCC(N)=O)NC(=O)[C@@H](N)Cc1ccccc1)C(=O)N[C@@H](CCCN=C(N)N)C(=O)O [FQWQRNPRKVR]

- MIC [27]: 8.89 µM (≈ 32 µg/mL)
- MIC [28]: 4.44 µM (≈ 16 µg/mL)
- MIC [29]: 8.89 µM (≈ 32 µg/mL)
- MIC [30]: 0.555 µM (≈ 2 µg/mL)
- MIC [31]: 17.8 µM (≈ 64 µg/mL)
- MIC (Candida albicans 3153A): 17.8 µM (≈ 64 µg/mL)
- MIC (Escherichia coli UB1005): 2.22 µM (≈ 8 µg/mL)
- MIC [32]: 8.89 µM (≈ 32 µg/mL)
- MIC (Escherichia coli O157:H7): 8.89 µM (≈ 32 µg/mL)
- MIC (Candida albicans 105): 17.8 µM (≈ 64 µg/mL)
- MIC (Escherichia coli O111): 4.44 µM (≈ 16 µg/mL)
- MIC (Escherichia coli DC2): 0.555 µM (≈ 2 µg/mL)
- MIC [33]: 8.89 µM (≈ 32 µg/mL)
- MIC [34]: 17.8 µM (≈ 64 µg/mL)
- MIC [35]: 17.8 µM (≈ 64 µg/mL)
SMILES: CC[C@H](C)[C@H](NC(=O)[C@@H]1CCCN1C(=O)[C@H](CCCN=C(N)N)NC(=O)[C@@H]1CCCN1C(=O)[C@@H](NC(=O)[C@H](CCCN=C(N)N)NC(=O)[C@@H](N)CCCN=C(N)N)[C@@H](C)CC)C(=O)N[C@@H](CC(C)C)C(=O)N[C@@H](CC(C)C)C(=O)N1CCC[C@H]1C(=O)N[C@@H](Cc1c[nH]c2ccccc12)C(=O)N[C@@H](CCCN=C(N)N)C(=O)N1CCC[C@H]1C(=O)N1CCC[C@H]1C(=O)N[C@@H](CCCN=C(N)N)C(=O)N1CCC[C@H]1C(=O)N[C@H](C(=O)N1CCC[C@H]1C(=O)N[C@@H](CCCN=C(N)N)C(=O)N1CCC[C@H]1C(=O)N[C@@H](CCC(N)=O)C(=O)N1CCC[C@H]1C(=O)N[C@@H](CCC(N)=O)C(=O)N1CCC[C@H]1C(=O)N[C@H](C(=O)N1CCC[C@H]1C(=O)N[C@@H](CCCN=C(N)N)C(=O)N[C@@H](Cc1c[nH]c2ccccc12)C(=O)N[C@@H](CC(C)C)C(N)=O)[C@@H](C)CC)[C@@H](C)CC [RRIPRPILLPWRPPRPIPRPQPQPIPRWL]
